Biological target: CDK2 (human) (UniProt P24941)
Assay: Enzyme Assay
Conditions: for inhibition: concentration not given here

Compound | inhibition [%] | Ki [nM]
Nc1nc(NC2CCN(C(=O)Cc3ccc4c(c3)OCO4)CC2)sc1C(=O)c1c(F)cccc1F | 39 | 
CC(=O)SC(C)CC(=O)N1CCC(Nc2nc(N)c(C(=O)c3c(F)cccc3F)s2)CC1 (stereo not given) | 50 | 
Nc1nc(NC2CCN(C(=O)C3(O)CC3)CC2)sc1C(=O)c1c(F)cccc1F | 46 | 
C/C=C/CCC(=O)N1CCC(Nc2nc(N)c(C(=O)c3c(F)cccc3F)s2)CC1 | 71 | 
Cc1cccc(CC(=O)N2CCC(Nc3nc(N)c(C(=O)c4c(F)cccc4F)s3)CC2)c1 | 55 | 
Cc1ccc(/C=C/C(=O)N2CCC(Nc3nc(N)c(C(=O)c4c(F)cccc4F)s3)CC2)c(C)c1 | 31 | 
C#CCCC(=O)N1CCC(Nc2nc(N)c(C(=O)c3c(F)cccc3F)s2)CC1 | 52 | 
Nc1nc(NC2CCN(C(=O)C(O)c3cc(F)cc(F)c3)CC2)sc1C(=O)c1c(F)cccc1F (stereo not given) | 52 | 
CCSc1ncccc1C(=O)N1CCC(Nc2nc(N)c(C(=O)c3c(F)cccc3F)s2)CC1 | 38 | 
Cc1c(F)cccc1C(=O)N1CCC(Nc2nc(N)c(C(=O)c3c(F)cccc3F)s2)CC1 | 36 | 
CN(C)N=Nc1ccccc1C(=O)N1CCC(Nc2nc(N)c(C(=O)c3c(F)cccc3F)s2)CC1 | 43 | 
Nc1nc(NC2CCN(C(=O)Cc3cccs3)CC2)sc1C(=O)c1c(F)cccc1F | 73 | 
Nc1nc(NC2CCN(C(=O)c3csnn3)CC2)sc1C(=O)c1c(F)cccc1F | 68 | 
CC(O)(C(=O)N1CCC(Nc2nc(N)c(C(=O)c3c(F)cccc3F)s2)CC1)c1ccccc1 (stereo not given) | 49 | 
Nc1nc(NC2CCN(C(=O)CCc3cccc(O)c3)CC2)sc1C(=O)c1c(F)cccc1F | 40 | 
C=CCC/C=C/C(=O)N1CCC(Nc2nc(N)c(C(=O)c3c(F)cccc3F)s2)CC1 | 69 | 
Cc1ccc(C(=O)/C=C/C(=O)N2CCC(Nc3nc(N)c(C(=O)c4c(F)cccc4F)s3)CC2)cc1 | 78 | 
Cc1ccc(CCCC(=O)N2CCC(Nc3nc(N)c(C(=O)c4c(F)cccc4F)s3)CC2)c(C)c1 | 35 | 
Cc1ccc(OCC(=O)N2CCC(Nc3nc(N)c(C(=O)c4c(F)cccc4F)s3)CC2)c(C)c1 | 51 | 

Compound | inhibition [%] | Ki [nM]
N#Cc1ccccc1C(=O)N1CCC(Nc2nc(N)c(C(=O)c3c(F)cccc3F)s2)CC1 | 61 | 
Nc1nc(NC2CCN(S(=O)(=O)c3cccc([N+](=O)[O-])c3)CC2)sc1C(=O)c1c(F)cccc1F | -23 | 
Cc1ccc(C(=O)N2CCC(Nc3nc(N)c(C(=O)c4c(F)cccc4F)s3)CC2)cc1 | 60 | 
Nc1nc(NC2CCN(C(=O)CCc3ccc(O)cc3)CC2)sc1C(=O)c1c(F)cccc1F | 13 | 
Nc1nc(NC2CCN(C(=O)COc3cccc(Cl)c3)CC2)sc1C(=O)c1c(F)cccc1F | 67 | 
Nc1nc(NC2CCN(C(=O)c3cccnc3)CC2)sc1C(=O)c1c(F)cccc1F | 28 | 
Nc1nc(NC2CCN(C(=O)c3ccccn3)CC2)sc1C(=O)c1c(F)cccc1F | 67 | 
Nc1nc(NC2CCN(C(=O)/C=C/c3cccc(F)c3)CC2)sc1C(=O)c1c(F)cccc1F | 70 | 
Cc1nn(C)c2ncc(C(=O)N3CCC(Nc4nc(N)c(C(=O)c5c(F)cccc5F)s4)CC3)c(Cl)c12 | 16 | 
Nc1nc(NC2CCN(C(=O)Cc3cccc(O)c3)CC2)sc1C(=O)c1c(F)cccc1F | 44 | 
COc1ccc(OC)c(CC(=O)N2CCC(Nc3nc(N)c(C(=O)c4c(F)cccc4F)s3)CC2)c1 | 57 | 
Nc1nc(NC2CCN(C(=O)c3ccccc3OC(F)(F)F)CC2)sc1C(=O)c1c(F)cccc1F | -6 | 
COC(=O)c1cccc(C(=O)N2CCC(Nc3nc(N)c(C(=O)c4c(F)cccc4F)s3)CC2)c1 | 65 | 
Cc1c(C(=O)N2CCC(Nc3nc(N)c(C(=O)c4c(F)cccc4F)s3)CC2)oc2ccccc12 | 38 | 
Nc1nc(NC2CCN(C(=O)CCC(=O)c3ccc(F)cc3)CC2)sc1C(=O)c1c(F)cccc1F | 7 | 
CSCCC(O)C(=O)N1CCC(Nc2nc(N)c(C(=O)c3c(F)cccc3F)s2)CC1 (stereo not given) | 65 | 
Nc1nc(NC2CCN(C(=O)c3ccsc3)CC2)sc1C(=O)c1c(F)cccc1F | 52 | 
C=CCC(C)(C)C(=O)N1CCC(Nc2nc(N)c(C(=O)c3c(F)cccc3F)s2)CC1 | 14 | 
Nc1nc(NC2CCN(C(=O)[C@@H]3C[C@H]3c3ccccc3)CC2)sc1C(=O)c1c(F)cccc1F | -9 | 

Compound | inhibition [%] | Ki [nM]
Nc1nc(NC2CCN(C(=O)c3ccc(F)cc3F)CC2)sc1C(=O)c1c(F)cccc1F | 67 | 
CSc1ccccc1C(=O)N1CCC(Nc2nc(N)c(C(=O)c3c(F)cccc3F)s2)CC1 | 40 | 
C=CCSc1ncccc1C(=O)N1CCC(Nc2nc(N)c(C(=O)c3c(F)cccc3F)s2)CC1 | 48 | 
CN(CCN)c1ccc(S(=O)(=O)N2CCC(Nc3nc(N)c(C(=O)c4c(F)cccc4F)s3)CC2)cn1 |  | 4.9
Cc1cc(C(=O)N2CCC(Nc3nc(N)c(C(=O)c4c(F)cccc4F)s3)CC2)nn1C | 40 | 
Nc1nc(NC2CCN(C(=O)Oc3ccc(F)cc3)CC2)sc1C(=O)c1c(F)cccc1F | 47 | 
Nc1nc(NC2CCN(C(=O)COc3cccc(C=O)c3)CC2)sc1C(=O)c1c(F)cccc1F | 38 | 
Nc1nc(NC2CCN(C(=O)c3ccc(Cl)cc3F)CC2)sc1C(=O)c1c(F)cccc1F | 68 | 
CC(C)Oc1ccc(C(=O)N2CCC(Nc3nc(N)c(C(=O)c4c(F)cccc4F)s3)CC2)cc1 | 19 | 
Nc1nc(NC2CCN(C(=O)/C=C/c3ccc(F)cc3F)CC2)sc1C(=O)c1c(F)cccc1F | 28 | 
C/C=C/C(=O)N1CCC(Nc2nc(N)c(C(=O)c3c(F)cccc3F)s2)CC1 | -9 | 
CC(C)c1ccc(CC(=O)N2CCC(Nc3nc(N)c(C(=O)c4c(F)cccc4F)s3)CC2)cc1 | 85 | 
COc1ccccc1/C=C\C(=O)N1CCC(Nc2nc(N)c(C(=O)c3c(F)cccc3F)s2)CC1 | 70 | 
CC(C)(O)CC(=O)N1CCC(Nc2nc(N)c(C(=O)c3c(F)cccc3F)s2)CC1 | 51 | 
CN(C)c1ccccc1C(=O)N1CCC(Nc2nc(N)c(C(=O)c3c(F)cccc3F)s2)CC1 | 6 | 
CCOC(=O)N1CCC(Nc2nc(N)c(C(=O)c3c(F)cccc3F)s2)CC1 | -13 | 
Cc1ccccc1C(=O)N1CCC(Nc2nc(N)c(C(=O)c3c(F)cccc3F)s2)CC1 | -11 | 
CC(C)[C@@H]1CC[C@@H](C)C[C@H]1OC(=O)N1CCC(Nc2nc(N)c(C(=O)c3c(F)cccc3F)s2)CC1 | -45 | 

Other lines, results leading:

inhibition [%] | Ki [nM] | Compound
74 |  | CC1CCCC(C(=O)N2CCC(Nc3nc(N)c(C(=O)c4c(F)cccc4F)s3)CC2)C1 (stereo not given)
63 |  | Nc1nc(NC2CCN(C(=O)CCC(=O)c3cccs3)CC2)sc1C(=O)c1c(F)cccc1F
52 |  | COc1ccc(C(=O)N2CCC(Nc3nc(N)c(C(=O)c4c(F)cccc4F)s3)CC2)c(Cl)c1
48 |  | Cc1ccccc1CCC(=O)N1CCC(Nc2nc(N)c(C(=O)c3c(F)cccc3F)s2)CC1
-32 |  | Nc1nc(NC2CCN(S(=O)(=O)c3cccc4cccnc34)CC2)sc1C(=O)c1c(F)cccc1F
40 |  | CC(=O)N(C)CC(=O)N1CCC(Nc2nc(N)c(C(=O)c3c(F)cccc3F)s2)CC1
52 |  | CC(C)c1ccc(/C=C/C(=O)N2CCC(Nc3nc(N)c(C(=O)c4c(F)cccc4F)s3)CC2)cc1
61 |  | Nc1nc(NC2CCN(C(=O)[C@@H](O)c3ccccc3)CC2)sc1C(=O)c1c(F)cccc1F
-73 |  | Nc1nc(NC2CCN(C(=O)c3cccnc3Sc3ccc(Cl)cc3)CC2)sc1C(=O)c1c(F)cccc1F
36 |  | Nc1nc(NC2CCN(C(=O)c3cc4cc(F)ccc4[nH]3)CC2)sc1C(=O)c1c(F)cccc1F
34 |  | Cc1ccc(C)c(/C=C/C(=O)N2CCC(Nc3nc(N)c(C(=O)c4c(F)cccc4F)s3)CC2)c1
-20 |  | Nc1nc(NC2CCN(C(=O)c3c(F)cccc3F)CC2)sc1C(=O)c1c(F)cccc1F
47 |  | COc1ccc(C(=O)N2CCC(Nc3nc(N)c(C(=O)c4c(F)cccc4F)s3)CC2)cc1Cl
54 |  | Nc1nc(NC2CCN(C(=O)C(O)c3c(F)cccc3F)CC2)sc1C(=O)c1c(F)cccc1F (stereo not given)
-23 |  | COc1ccc(C(=O)N2CCC(Nc3nc(N)c(C(=O)c4c(F)cccc4F)s3)CC2)cc1OC
41 |  | CC(=O)O[C@H](C(=O)N1CCC(Nc2nc(N)c(C(=O)c3c(F)cccc3F)s2)CC1)c1ccccc1
48 |  | CC(C(=O)N1CCC(Nc2nc(N)c(C(=O)c3c(F)cccc3F)s2)CC1)c1ccc(Cl)cc1 (stereo not given)

inhibition [%] | Ki [nM] | Compound
34 |  | CC(C)[C@@H](O)C(=O)N1CCC(Nc2nc(N)c(C(=O)c3c(F)cccc3F)s2)CC1
-25 |  | Nc1nc(NC2CCN(S(=O)(=O)c3ccc(Sc4ccncc4)cc3)CC2)sc1C(=O)c1c(F)cccc1F
41 |  | CN1CC(C(=O)N2CCC(Nc3nc(N)c(C(=O)c4c(F)cccc4F)s3)CC2)CC1=O (stereo not given)
36 |  | Nc1nc(NC2CCN(C(=O)CCCCc3ccccc3)CC2)sc1C(=O)c1c(F)cccc1F
64 |  | Nc1nc(NC2CCN(C(=O)CN3C(=O)CSC3=S)CC2)sc1C(=O)c1c(F)cccc1F
35 |  | CC(C)C(C)C(=O)N1CCC(Nc2nc(N)c(C(=O)c3c(F)cccc3F)s2)CC1 (stereo not given)
6 |  | Nc1nc(NC2CCN(C(=O)C3CCc4ccccc4O3)CC2)sc1C(=O)c1c(F)cccc1F (stereo not given)
63 |  | Nc1nc(NC2CCN(C(=O)COc3ccccc3O)CC2)sc1C(=O)c1c(F)cccc1F
-14 |  | Cc1cc(C)c(S(=O)(=O)N2CCC(Nc3nc(N)c(C(=O)c4c(F)cccc4F)s3)CC2)c(C)c1
48 |  | Nc1nc(NC2CCN(C(=O)c3ccc(F)c(Cl)c3)CC2)sc1C(=O)c1c(F)cccc1F
87 |  | Nc1nc(NC2CCN(C(=O)Cn3cnnn3)CC2)sc1C(=O)c1c(F)cccc1F
15 |  | Nc1nc(NC2CCN(C(=O)CCN3CCCCC3)CC2)sc1C(=O)c1c(F)cccc1F
53 |  | CCCCCCCC(=O)N1CCC(Nc2nc(N)c(C(=O)c3c(F)cccc3F)s2)CC1
-13 |  | CCOC(=O)CC(=O)N1CCC(Nc2nc(N)c(C(=O)c3c(F)cccc3F)s2)CC1
27 |  | Nc1nc(NC2CCN(C(=O)C3CCCO3)CC2)sc1C(=O)c1c(F)cccc1F (stereo not given)
83 |  | Nc1nc(NC2CCN(C(=O)c3ccc4c(c3)CCO4)CC2)sc1C(=O)c1c(F)cccc1F
55 |  | COc1ccc(CC(=O)N2CCC(Nc3nc(N)c(C(=O)c4c(F)cccc4F)s3)CC2)cc1OC
